Measured values taken from BindingDB's records for doi:10.1111/cbdd.12379 (Quaid-I-Azam University, 2015).
pIC50: −log10 of the molar value.

The compounds below were run against Urease [D459Y,K653P] (Canavalia ensiformis, UniProt P07374, D459Y/K653P) (assay: In vitro Urease Inhibition Assay). Details: pH 8.2.
Urease [D459Y,K653P], sequence (P07374 whole entry D459Y/K653P): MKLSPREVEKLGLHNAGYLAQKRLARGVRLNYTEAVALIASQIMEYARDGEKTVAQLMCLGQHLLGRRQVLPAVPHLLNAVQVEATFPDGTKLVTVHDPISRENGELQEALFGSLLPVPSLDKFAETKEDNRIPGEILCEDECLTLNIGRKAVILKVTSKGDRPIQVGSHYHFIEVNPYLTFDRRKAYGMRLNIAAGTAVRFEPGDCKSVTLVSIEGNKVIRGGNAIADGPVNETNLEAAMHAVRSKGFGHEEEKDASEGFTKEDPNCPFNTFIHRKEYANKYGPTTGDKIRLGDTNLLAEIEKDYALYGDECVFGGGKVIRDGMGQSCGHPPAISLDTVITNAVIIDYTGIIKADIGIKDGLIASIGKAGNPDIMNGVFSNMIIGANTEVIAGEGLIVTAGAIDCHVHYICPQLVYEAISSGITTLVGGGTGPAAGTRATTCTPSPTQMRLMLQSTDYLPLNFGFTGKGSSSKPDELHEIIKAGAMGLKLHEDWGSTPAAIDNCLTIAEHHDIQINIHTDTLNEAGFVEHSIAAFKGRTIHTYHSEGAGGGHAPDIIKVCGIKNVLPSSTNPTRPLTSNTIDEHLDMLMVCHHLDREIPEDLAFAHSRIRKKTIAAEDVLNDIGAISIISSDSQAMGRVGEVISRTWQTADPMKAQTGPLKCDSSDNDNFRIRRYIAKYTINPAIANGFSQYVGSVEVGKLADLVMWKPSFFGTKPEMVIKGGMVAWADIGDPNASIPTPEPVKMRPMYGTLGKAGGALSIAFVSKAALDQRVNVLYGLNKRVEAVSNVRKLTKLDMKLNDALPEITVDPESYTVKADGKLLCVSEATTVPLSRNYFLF
Method: Urease inhibition activity was determined by indophenol method. […] Initially, urease enzyme and the test compound were incubated in the assay buffer for 30 minutes (in a linear reaction range) at 37 °C, 40 µL of phenol and alkali reagents were added to stop the reaction. […] All the assays were performed in triplicate.
`Cc1ccc(C/C=N/NC(N)=S)o1` [[(E)-[2-(5-methylfuran-2-yl)ethylidene]amino]thiourea (3g)] gave a pIC50 of 5.49. With `COc1cc(C/C=N/NC(N)=S)ccc1OCc1ccccc1` [[(E)-{2-[4-(benzyloxy)-3-methoxyphenyl]ethylidene}amino]thiourea (3l)] the pIC50 was 4.12. Compound `NC(=S)N/N=C/Cc1ccccc1` [[(E)-(2-phenylethylidene)amino]thiourea (3j)] has a pIC50 of 5.37. In the case of `NC(=S)N/N=C/Cc1ccccn1` [[(E)-[2-(pyridin-2-yl)ethylidene]amino]thiourea (3a)], the pIC50 was 5.58. `NC(=S)N/N=C/Cc1ccc2ccc3cccc4ccc1c2c34` [[(E)-[2-(pyren-1-yl)ethylidene]amino]thiourea (3m)] was tested, and the pIC50 was 5.32. `NC(=S)N/N=C/Cc1ccc(OCc2ccccc2)cc1` [[(E)-{2-[4-(benzyloxy)phenyl]ethylidene}amino]thiourea (3k)] gave a pIC50 of 5.44. `NC(=S)N/N=C/Cc1cccnc1` [[(E)-[2-(pyridin-3-yl)ethylidene]amino]thiourea (3b)] was tested, and the pIC50 was 5.62. `NC(=S)N/N=C/Cc1ccco1` [[(E)-[2-(furan-2-yl)ethylidene]amino]thiourea (3f)] gave a pIC50 of 6.24.
